Reference: PMC7155755, “Binding of the Human 14-3-3 Isoforms to Distinct Sites in the Leucine-Rich Repeat Kinase 2” (Frontiers in Neuroscience, 2020)
Square brackets hold non-standard residues; d marks the D form. Peptide text beside a SMILES is read from it. pS = N[C@@H](COP(=O)(O)O)C(=O)O

Experiments:
Experiment in all cases: Fluorescence polarization (FP) direct binding assay
human 14-3-3 isoform θ = target: T1, human 14-3-3 isoform θ (Homo sapiens, UniProt P27348); settings: fluorescein-labeled peptide 1 nM, 20 mM MOPS pH 7, 150 mM NaCl, 0.005% CHAPS, at least three independent measurements, read-out: Binding affinity (KD) toward 14-3-3 isoform θ
T1 construct: MBP (cleaved yes); made in house; host or cells: E. coli BL21DE3
T1 sequence (P27348 whole entry, canonical isoform): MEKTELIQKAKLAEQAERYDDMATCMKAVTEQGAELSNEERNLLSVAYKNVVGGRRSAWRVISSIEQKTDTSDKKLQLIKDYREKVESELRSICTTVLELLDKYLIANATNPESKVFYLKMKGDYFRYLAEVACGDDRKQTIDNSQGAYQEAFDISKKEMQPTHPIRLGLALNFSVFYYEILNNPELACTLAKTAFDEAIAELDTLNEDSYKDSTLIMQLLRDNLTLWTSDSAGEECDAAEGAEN
Method in brief: (§1)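 Untagged human 14-3-3 isoforms (MBP removed) titrated from ≥5 μM down to picomolar against 1 nM fluorescein-labeled LRRK2-derived peptides, phosphorylated or not, in 20 mM MOPS pH 7, 150 mM NaCl, 0.005% CHAPS. KD from sigmoidal fit of FP (mPol) versus log protein concentration; duplicates, ≥2 independent replicates.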

human 14-3-3 isoform η = target: T2, human 14-3-3 isoform η (Homo sapiens, UniProt Q04917); settings: fluorescein-labeled peptide 1 nM, 20 mM MOPS pH 7, 150 mM NaCl, 0.005% CHAPS, at least three independent measurements, read-out: Binding affinity (KD) toward 14-3-3 isoform η
T2 construct: MBP (cleaved yes); made in house; host or cells: E. coli BL21DE3
T2 sequence (Q04917 whole entry, canonical isoform): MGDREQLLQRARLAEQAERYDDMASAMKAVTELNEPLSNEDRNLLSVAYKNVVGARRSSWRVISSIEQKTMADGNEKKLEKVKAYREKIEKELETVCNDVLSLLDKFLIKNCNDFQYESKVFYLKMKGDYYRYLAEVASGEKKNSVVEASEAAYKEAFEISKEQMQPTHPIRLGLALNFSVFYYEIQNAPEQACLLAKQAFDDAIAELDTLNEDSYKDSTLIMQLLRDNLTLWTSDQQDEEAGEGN
Method in brief: as §1

human 14-3-3 isoform β = target: T3, human 14-3-3 isoform β (Homo sapiens, UniProt P31946); settings: fluorescein-labeled peptide 1 nM, 20 mM MOPS pH 7, 150 mM NaCl, 0.005% CHAPS, at least three independent measurements, read-out: Binding affinity (KD) toward 14-3-3 isoform β
T3 construct: MBP (cleaved yes); made in house; host or cells: E. coli BL21DE3
T3 sequence (P31946 whole entry, canonical isoform): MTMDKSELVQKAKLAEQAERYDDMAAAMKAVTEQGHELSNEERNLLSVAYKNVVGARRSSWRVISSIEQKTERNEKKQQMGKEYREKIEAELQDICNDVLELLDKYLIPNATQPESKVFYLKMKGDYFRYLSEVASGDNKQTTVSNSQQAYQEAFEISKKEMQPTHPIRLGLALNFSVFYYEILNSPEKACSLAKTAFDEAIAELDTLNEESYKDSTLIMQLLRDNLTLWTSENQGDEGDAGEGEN
Method in brief: as §1

human 14-3-3γ = target: T4, human 14-3-3γ (Homo sapiens, UniProt P61981); settings: fluorescein-labeled peptide 1 nM, 20 mM MOPS pH 7, 150 mM NaCl, 0.005% CHAPS, at least three independent measurements, read-out: Binding affinity (KD) toward 14-3-3 isoform γ
T4 construct: MBP (cleaved yes); made in house; host or cells: E. coli BL21DE3
T4 sequence (P61981 1-247): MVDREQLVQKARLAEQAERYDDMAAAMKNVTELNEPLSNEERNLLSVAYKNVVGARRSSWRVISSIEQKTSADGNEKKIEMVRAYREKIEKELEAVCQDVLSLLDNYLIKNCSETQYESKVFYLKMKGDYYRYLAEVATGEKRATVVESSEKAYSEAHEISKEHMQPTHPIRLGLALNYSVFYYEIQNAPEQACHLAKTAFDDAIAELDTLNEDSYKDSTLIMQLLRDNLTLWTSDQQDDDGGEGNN
Method in brief: as §1

human 14-3-3 isoform ϵ = target: T5, human 14-3-3 isoform ϵ (Homo sapiens, UniProt P62258); settings: fluorescein-labeled peptide 1 nM, 20 mM MOPS pH 7, 150 mM NaCl, 0.005% CHAPS, bound given in μM, read-out: Binding affinity (KD) toward 14-3-3 isoform ϵ
T5 construct: MBP (cleaved yes); made in house; host or cells: E. coli BL21DE3
T5 sequence (P62258 1-255): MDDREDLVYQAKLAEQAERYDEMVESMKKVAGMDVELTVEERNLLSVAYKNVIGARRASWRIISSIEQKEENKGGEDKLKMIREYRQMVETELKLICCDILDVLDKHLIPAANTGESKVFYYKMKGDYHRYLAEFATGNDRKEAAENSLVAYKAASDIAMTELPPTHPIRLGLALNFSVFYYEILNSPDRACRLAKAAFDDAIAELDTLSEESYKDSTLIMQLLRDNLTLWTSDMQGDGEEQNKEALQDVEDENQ
Method in brief: as §1

human 14-3-3 isoform ζ = target: T6, human 14-3-3 isoform ζ (Homo sapiens, UniProt P63104); settings: fluorescein-labeled peptide 1 nM, 20 mM MOPS pH 7, 150 mM NaCl, 0.005% CHAPS, at least three independent measurements, read-out: Binding affinity (KD) toward 14-3-3 isoform ζ
T6 construct: MBP (cleaved yes); made in house; host or cells: E. coli BL21DE3
T6 sequence (P63104 whole entry, canonical isoform): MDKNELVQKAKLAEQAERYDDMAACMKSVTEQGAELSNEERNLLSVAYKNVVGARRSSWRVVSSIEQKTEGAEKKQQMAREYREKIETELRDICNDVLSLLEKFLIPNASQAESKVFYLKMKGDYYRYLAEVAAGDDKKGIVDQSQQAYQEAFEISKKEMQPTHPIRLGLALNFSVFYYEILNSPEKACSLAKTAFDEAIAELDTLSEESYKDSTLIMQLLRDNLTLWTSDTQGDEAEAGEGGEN
Method in brief: as §1

human 14-3-3 isoform σ = target: T7, human 14-3-3 isoform σ (Homo sapiens, UniProt P31947); settings: fluorescein-labeled peptide 1 nM, 20 mM MOPS pH 7, 150 mM NaCl, 0.005% CHAPS, at least three independent measurements, read-out: Binding affinity (KD) toward 14-3-3 isoform σ
T7 construct: MBP (cleaved yes); made in house; host or cells: E. coli BL21DE3
T7 sequence (P31947 1-248): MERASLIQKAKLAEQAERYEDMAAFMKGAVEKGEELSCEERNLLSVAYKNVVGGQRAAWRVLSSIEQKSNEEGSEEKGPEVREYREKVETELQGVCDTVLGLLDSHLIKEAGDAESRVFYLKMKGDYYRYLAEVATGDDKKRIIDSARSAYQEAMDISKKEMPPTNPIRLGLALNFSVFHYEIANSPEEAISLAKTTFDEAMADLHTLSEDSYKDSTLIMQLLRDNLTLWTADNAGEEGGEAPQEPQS
Method in brief: as §1

- Kd (human 14-3-3 isoform θ): 195 ± 42 nM
- Kd (human 14-3-3 isoform η): 85 ± 10 nM
- Kd (human 14-3-3 isoform β): 183 ± 25 nM
- Kd (human 14-3-3γ): 106 ± 4 nM
- Kd (human 14-3-3 isoform ϵ): > 1 µM
- Kd (human 14-3-3 isoform ζ): 476 ± 165 nM
- Kd (human 14-3-3 isoform σ): 802 ± 261 nM
Compound: CC[C@H](C)[C@H](NC(=O)[C@H](CC(N)=O)NC(=O)[C@H](Cc1ccccc1)NC(=O)[C@@H](N)CC(C)C)C(=O)N[C@@H](CCCCN)C(=O)N[C@@H](C)C(=O)N[C@@H](CCCNC(=N)N)C(=O)N[C@@H](C)C(=O)N[C@@H](CO)C(=O)N[C@@H](COP(=O)(O)O)C(=O)N[C@@H](CO)C(=O)N1CCC[C@H]1C(=O)N[C@H](C(=O)N[C@H](C(=O)N[C@@H](CC(C)C)C(=O)N[C@H](C(=O)NCC(=O)N[C@H](C(=O)O)[C@@H](C)O)C(C)C)[C@@H](C)CC)C(C)C [pS1444] (H-LFNIKARAS[pS]SPVILVGT-OH)
